Like-named read-outs stand apart in the source and are kept apart here.
Tests used:
[1] = 14-day and 25-day repeat-dose studies in healthy volunteers (discoloration); assay type: in vivo, human; details: 4 mg BID lowest dose with comparable discoloration
[2] = compatibility of LMTM tablets with AD treatments (HPLC recovery of LMT and MT); assay type: physicochemical
Protocol: The effect of combining tablets of galantamine, memantine, donepezil or rivastigmine independently with LMTM was studied and LMTM was analysed in the resultant mixture.
One LMTM tablet (100 mg) was added to a degassed 200 ml amber volumetric flask along with one prescription dose of each of the test drugs, as indicated in the table below, and 100 ml of diluent (degassed 0.1% formic acid). Flasks were given an argon headspace and shaken on a wrist action shaker for 40 minutes at 250 oscillations/min. Samples were then diluted to the graduation mark with diluent, given an argon headspace and inverted to mix. Subsamples of the resulting solution were centrifuged at 13,000 rpm for 5 minutes to remove any undissolved excipients and the supernatant placed in an amber HPLC vial and injected into a high performance liquid chromatography (HPLC) system (Agilent 1260) to separate LMT and MT. LMT and MT peaks were identified by absorbance at 255 nm with retention times of 5.5 and 14 minutes, respectively (FIG. 11).

[3] = tested on: behavioural variant frontotemporal dementia (bvFTD); details: for ACE-R treatment effect mean (se) / FAQ treatment effect mean (se) / Fronto-temporal volume treatment effect mean (se): wrt 4 mg b.i.d. alone
Protocol: (1) Addenbrooke's Cognitive Examination—revised (ACE-R) and (2) Functional Activities Questionnaire [FAQ] or MRI (with Bonferroni Holme correction)
The effect of co-medication with symptomatic AD treatments which modify synaptic neurotransmission in the brain (acetylcholinesterase inhibitors or the NMDA antagonist “memantine”) was assessed. For brevity these treatments may be referred to as “AChEI/Mem” below.

TDP-43 aggregates = details: 0.05 μM MT; SH-SYSY cells; cited from earlier work
[4] = 100 mg LMTM + 6 mg rivastigmine
[5] = 100 mg LMTM + 12 mg galantamine
[6] = 100 mg LMTM tablet, no addition, HPLC 255 nm
[7] = 4 mg b.i.d. versus 100 mg b.i.d.
[8] = ANCOVA model, 4 mg b.i.d. as add-on to AChEI/Mem
[9] = ANCOVA model, 100 mg b.i.d. alone
[10] = ANCOVA model, 100 mg b.i.d. as add-on to AChEI/Mem
[11] = MMRM model, 4 mg b.i.d. as add-on to AChEI/Mem
[12] = MMRM model, 100 mg b.i.d. alone
[13] = MMRM model, 100 mg b.i.d. as add-on to AChEI/Mem

Compound: CN(C)c1ccc2c(c1)Sc1cc(N(C)C)ccc1N2 [LMTM, leuco-methylthioninium bis(hydromethanesulfonate)]
- urine and stool discoloration [1]: associated with urine and stool discoloration
- LMT (% difference from control*) [2, 4]: 5.64%
- LMT (area) [2, 4]: 23302.4 area
- MT (% difference from control*) [2, 4]: 2.14%
- MT (area) [2, 4]: 320.6 area
- LMT (% difference from control*) ([2]; 100 mg LMTM + 10 mg donepezil): −2.58%
- LMT (area) ([2]; 100 mg LMTM + 10 mg donepezil): 22058.4 area
- MT (% difference from control*) ([2]; 100 mg LMTM + 10 mg donepezil): −6.58%
- MT (area) ([2]; 100 mg LMTM + 10 mg donepezil): 313.9205 area
- LMT (% difference from control*) ([2]; 100 mg LMTM + 10 mg memantine): 2.19%
- LMT (area) ([2]; 100 mg LMTM + 10 mg memantine): 22642.3 area
- MT (% difference from control*) ([2]; 100 mg LMTM + 10 mg memantine): 1.10%
- MT (area) ([2]; 100 mg LMTM + 10 mg memantine): 336 area
- LMT (% difference from control*) [2, 5]: −1.37%
- LMT (area) [2, 5]: 22157.4 area
- MT (% difference from control*) [2, 5]: −14.90%
- MT (area) [2, 5]: 332.3 area
- LMT (area) [2, 6]: 22465.7 area
- MT (area) [2, 6]: 390.5473 area
- amount of oxidised MT after mixing ([2]; after mixing with any of the AChEIs or memantine): not increased
- LMTM found in the oxidised form ([2]; following HPLC analysis): Less than 2%
- decline on ACE-R and MMSE compared with historical controls ([3]; 4 mg b.i.d. and 100 mg b.i.d.): significantly less than historical controls
- ADCS-CGIC, FRS, MMSE, UPDRS (safety outcome) [3, 7]: no difference
- primary analysis models for ACE-R, FAQ and Whole Brain Volume [3, 7]: no difference
- 12 m change in MMSE (decline), present study ([3]; 4 mg bd): 3.4 ± 0.5
- 12 month change in ACE-R (decline), present study ([3]; 4 mg bd): 10.4 ± 1.4
- 12 m change in MMSE (decline), present study ([3]; 100 mg bd): 3.0 ± 0.7
- 12 month change in ACE-R (decline), present study ([3]; 100 mg bd): 10.7 ± 1.4
- ACE-R treatment effect mean (se) [3, 8]: 6.52 (2.42)
- FAQ treatment effect mean (se) [3, 8]: 2.15 ± 1.21
- Fronto-temporal volume treatment effect mean (se) [3, 8]: 356 (237)
- ACE-R treatment effect mean (se) [3, 9]: 1.35 (1.71)
- FAQ treatment effect mean (se) [3, 9]: −0.11 ± 0.87
- Fronto-temporal volume treatment effect mean (se) [3, 9]: −98 (173)
- ACE-R treatment effect mean (se) [3, 10]: 9.69 (2.73)
- FAQ treatment effect mean (se) [3, 10]: 1.90 ± 1.37
- Fronto-temporal volume treatment effect mean (se) [3, 10]: 481 (258)
- ACE-R treatment effect mean (se) [3, 11]: 7.17 ± 3.25
- FAQ treatment effect mean (se) [3, 11]: 2.08 ± 1.31
- Fronto-temporal volume treatment effect mean (se) [3, 11]: 240 (291)
- ACE-R treatment effect mean (se) [3, 12]: −1.12 ± 2.28
- FAQ treatment effect mean (se) [3, 12]: −0.03 ± 0.92
- Fronto-temporal volume treatment effect mean (se) [3, 12]: −4 (207)
- ACE-R treatment effect mean (se) [3, 13]: 5.65 ± 3.57
- FAQ treatment effect mean (se) [3, 13]: 2.36 ± 1.45
- Fronto-temporal volume treatment effect mean (se) [3, 13]: 278 (313)
- safety profile ([3]; data not shown): raised no major concerns
- FAQ, MMSE and fronto-temporal volume, LMTM in combination with AD treatments versus LMTM alone ([3]; post hoc exploratory analyses): directionally supportive benefits
- ACE-R, LMTM in combination with off-label AD treatments (AChEI/Mem) versus LMTM alone ([3]; post hoc exploratory analyses with AD-comedication status and severity as covariates): significant benefits

Compound: Methylthioninium [MT]
- reduction of number of intracellular TDP-43 aggregates (TDP-43 aggregates): 50%

Source: patent US10842796B2, “Treatment of dementia” (WisTa Laboratories Ltd., priority 2016, dated 2020)
